Measurements: patent publication US20050118224A1, “Edible pesticidal formulations” (priority 2001, published 2005)

Assay: Chlorpyrifos loss from liquid blends with oleophilic phase candidates, 70° C. for 70 h
Assay type: physicochemical
Settings: 1.2 g chlorpyrifos in 9 g candidate, on aluminium foil
Experimental: 1.2 g of chlorpyrifos was added to 9 g of each alternative oleophilic candidate (see Table 14). 1.02 g of this liquid blend was then placed onto aluminium foil within a glass Petrie dish. The control was molten chlorpyrifos alone. Samples were then placed in a fan forced oven at 70° C. for 70 h before being removed and analysed for chlorpyrifos content.

CCOP(=S)(OCC)Oc1nc(Cl)c(Cl)cc1Cl [No oleophilic phase, chlorpyrifos]
Chlorpyrifos loss (%): 37%
